In patent publication US9611223B2, “3-aryl-5-substituted-isoquinolin-1-one compounds and their therapeutic use” (INSTITUTE OF CANCER RESEARCH: ROYAL CANCER HOSPITAL (THE), priority 2013, dated 2017):
Several values for one entry are separate records, joined by “and”; a condition that tells them apart may be missing. Equal values may be shown once. Read-outs that look alike come from different tables or passages of the source.

Legend:
TNKS1 = molecular target: T1, TNKS1 (Homo sapiens, UniProt O95271, M1266I); assay: TNKS1/PARP Biochemical Assay
T1 construct: expresses the active PARP domain of TNKS1 as a polyhistidine tagged protein; made in house; host or cells: E. coli Rosetta2(DE3)
Procedure: TNKS1/PARP Biochemical Assay
Tankyrase activity was assayed using a 96-well format HT Universal Chemiluminescent PARP Assay Kit (Trevigen, Inc, cat. no. 4676-096-K) according to the manufacturer's instructions. In short, tankyrase/PARP activity is quantified by the incorporation of biotinylated nicotinamide adenine dinucleotide (biotin-NAD^+) onto the immobilised pseudo substrate, Histone. The extent of poly(Biotin-ADP)ribosylation (PARylation) in the presence of increasing dose of inhibitor is then quantified by binding of streptavidin conjugated horse radish peroxidase (strep-HRP) followed by chemiluminescent detection.
Prior to assay initiation, inhibitor stocks were prepared in aqueous DMSO (10% (v/v)) from 5 millimolar (mM) stock in 100% DMSO (Sigma Aldrich, cat. no. 265855) as 10× concentrations. For the primary assay (i.e., single dose at 1 micromolar (μM) final concentration) this corresponded to 10 μM in 10% DMSO. For IC50 determination, this corresponded to 100 μM, 30 μM, 10 μM, 3.0 μM, 1.0 μM, 0.30 μM, 0.10 μM and 0 μM in 10% DMSO for final concentrations of 10 μM, 3.0 μM, 1.0 μM, 0.30 μM, 0.10 μM, 0.030 μM, 0.010 μM, and 0 μM with 1% (v/v) final DMSO. The assay was initiated by the addition of 10× inhibitor (5 microliters (μL)) or 10% aqueous DMSO (5 μL) to triplicate wells. Twenty microliters of diluted TNKS1 protein (200 nanomolar (nM) final conc.) in PARP buffer (Trevigen, Inc, cat. no. 4671-096-02) was added to each histone coated well, which was previously hydrated with PARP buffer. Triplicate wells with 1% DMSO/buffer alone (no enzyme) were also added as a measure of assay ‘noise’. Positive control for PARP inhibition included the addition of 4-amino-1,8-naphthalimide (Sigma Aldrich, cat. no A0966) in corresponding doses.
The mixture was incubated for 10 minutes at room temperature and the PARylation reaction initiated by the addition of PARP cocktail (25 μL, Trevigen, Inc) containing biotin-NAD^+ (Trevigen, Inc, cat. no. 4670-500-01), activated DNA (Trevigen, Inc, cat. no. 4671-096-06) and PARP buffer. The reaction was incubated for 1.5 hours (for TNKS1) or 1 hour (for PARP1) at room temperature. The reaction mixture was then removed by aspiration and the wells washed (3×200 μL) with phosphate buffered saline containing Triton X-100 (0.1% (v/v), Sigma Aldrich cat. no. T8787). The wells were then washed (3×200 μL) with phosphate buffered saline and then incubated with strep-HRP (50 μL, Trevigen, Inc, cat. no. 4800-30-06) in strep-diluent (1:500 dilution, Trevigen Inc, cat. no. 4671-096-04) for 1 hour at room temperature. The Strep-HRP mixture was then aspirated and the wells washed (3×200 μL) with phosphate buffered saline containing Triton X-100 (0.1% (v/v)) followed by phosphate buffered saline (3×200 μL) and then incubated with PeroxyGlow™ reagent (100 μL, Trevigen, Inc, cat. nos. 4675-096-01, 4675-096-02, room temperature, mixed 1:1).
The amount of light emitted as a result of the peroxidase-chemiluminescent reagent reaction was in proportion to the extent of poly(Biotin-ADP)ribosylation and was immediately measured with a Victor^2 plate reader (Perkin Elmer, luminescence detection assay, luminescent units described as ‘Counts Per Second’ (CPS)). The data were normalised to the DMSO control after subtraction of ‘noise’ and was expressed as % PARP activity as a function of inhibitor dose. Inhibition was expressed as 100%−(% PARP activity). Dose response curves used to determine IC50 values were Log transformed and analysed by non-linear regression analysis (variable slope) using Prism (GraphPad Software, Inc) and were presented as IC50 with 95% confidence interval to determine relative potency.
Tankyrase1 (pNIC-Bsa4-TNKS1^PARP) expression construct was obtained from the Structural Genomics Consortium (SGC) and expresses the active PARP domain of TNKS1 as a polyhistidine tagged protein. […]

COLO320DM cells = assay: Tumour Cell Inhibition Assay (COLO320DM cells); format: cell-based; details: Homo sapiens, COLO 320DM, 120 h, five day exposure
Procedure: Tumour Cell Inhibition in Colorectal Tumour Cells
In order to determine the efficacy of acute dosing of putative TNKS inhibitors, five day exposure cell viability assays were carried out. This included the sparse seeding of cells in a 96-well plate followed by continuous dosing of cells over a five day period.
Appropriate cell lines (HT55, COLO320DM and SW620) were seeded at 500 cells/well in a 96-well plate in MEM (HT55), RPMI (COLO320DM) or DMEM (SW620) supplemented with FBS. After overnight incubation, cells were treated with the appropriate putative TNKS inhibitor in 6 or 10 concentrations ranging from 0 μM to 10 μM at 0.2% final DMSO concentration in appropriate media supplemented with 10% or 0.5% FBS. Dosages were carried out in triplicate. Termination of the assay and measurement of cell viability was achieved by the use of Cell Titre Glo reagent and luminescence measurement on an appropriate plate reader.
Dose response curves used to determine SF50 values were Log transformed and analysed by non-linear regression analysis (variable slope) using Prism (GraphPad Software, Inc).

[1] = read-out: cell inhibitory SF50 (COLO320DM)

T1 sequence (O95271 1112-1317 M1266I): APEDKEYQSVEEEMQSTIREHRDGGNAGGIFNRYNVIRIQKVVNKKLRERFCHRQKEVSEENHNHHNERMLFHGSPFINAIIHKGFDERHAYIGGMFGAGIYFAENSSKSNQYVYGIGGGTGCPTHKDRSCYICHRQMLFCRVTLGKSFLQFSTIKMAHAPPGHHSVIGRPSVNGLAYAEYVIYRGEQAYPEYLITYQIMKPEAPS

IC50 (TNKS1) | IC50 (COLO320DM cells; [1]) [nM] | IC50 (COLO320DM cells; replicate, read-out: cell inhibitory SF50 (COLO320DM), replicate) [nM] | SMILES
< 50 nM | < 5000 |  | CN(C(=O)c1ccc(-c2cc3c(C#N)cccc3c(=O)[nH]2)cc1)C1CCN(CC2CC2)CC1 [IQ-006]
< 100 nM |  |  | COCCN(CCOC)C(=O)c1ccc(-c2cc3c(C#N)cccc3c(=O)[nH]2)cc1 [IQ-008]
< 50 nM |  |  | CC(c1ccc(-c2cc3c(C#N)cccc3c(=O)[nH]2)cc1)N1CC(O)C1 (centres unmarked) [IQ-009, 3-{4-[1-(3-Hydroxy-azetidin-1-yl)-ethyl]-phenyl}-1-oxo-1,2-dihydro-isoquinoline-5-carbonitrile]
< 50 nM |  |  | N#Cc1cccc2c(=O)[nH]c(-c3ccc(C(=O)N(CCO)CCO)cc3)cc12 [IQ-010, 4-(5-Cyano-1-oxo-1,2-dihydro-isoquinolin-3-yl)-N,N-bis-(2-hydroxy-ethyl)-benzamide]
< 100 nM and < 50 nM and 18 nM |  | 1120 | Cc1nccn1Cc1ccc(-c2cc3c(C#N)cccc3c(=O)[nH]2)cc1 [IQ-013]
< 50 nM | < 5000 |  | CN(C)Cc1nccn1Cc1ccc(-c2cc3c(C#N)cccc3c(=O)[nH]2)cc1 [IQ-016]
< 50 nM |  |  | COCc1nccn1Cc1ccc(-c2cc3c(C#N)cccc3c(=O)[nH]2)cc1 [IQ-017]
< 50 nM |  |  | CC(C)c1nnc(N2CCN(Cc3ccc(-c4cc5c(C#N)cccc5c(=O)[nH]4)cc3)CC2)o1 [IQ-019]
< 50 nM | < 5000 |  | Cc1nnc(N2CCN(Cc3ccc(-c4cc5c(C#N)cccc5c(=O)[nH]4)cc3)CC2)o1 [IQ-020]
< 50 nM |  |  | Cc1nnc(N2CCN(Cc3ccc(-c4cc5c(CN)cccc5c(=O)[nH]4)cc3)CC2)o1 [IQ-022]
< 50 nM |  |  | COCc1nccn1Cc1ccc(-c2cc3c(CN)cccc3c(=O)[nH]2)cc1 [IQ-023, 5-Aminomethyl-3-[4-(2-methoxymethyl-imidazol-1-ylmethyl)-phenyl]-2H-isoquinolin-1-one]
 | < 5000 |  | CN(C)Cc1cccc2c(=O)[nH]c(-c3ccc(CN4CCN(C)CC4)cc3)cc12 [IQ-024, 5-Dimethylaminomethyl-3-[4-(4-methyl-piperazin-1-ylmethyl)-phenyl]-2H-isoquinolin-1-one]
< 50 nM | < 5000 |  | COCc1nccn1C(C)c1ccc(-c2cc3c(C#N)cccc3c(=O)[nH]2)cc1 (centres unmarked) [IQ-028]
< 50 nM |  |  | CC(c1ccc(-c2cc3c(C#N)cccc3c(=O)[nH]2)cc1)n1ccnc1 (centres unmarked) [IQ-029]
< 50 nM | < 5000 |  | N#Cc1cccc2c(=O)[nH]c(-c3ccc(Cn4ccnn4)cc3)cc12 [IQ-030]
< 100 nM |  |  | COCc1ccnn1Cc1ccc(-c2cc3c(C#N)cccc3c(=O)[nH]2)cc1 [IQ-031]
< 50 nM |  |  | Cc1nnc(N2CCN(C(C)c3ccc(-c4cc5c(C#N)cccc5c(=O)[nH]4)cc3)CC2)o1 (centres unmarked) [IQ-032]

IC50 (TNKS1) | IC50 (COLO320DM cells; [1]) [nM] | IC50 (COLO320DM cells; replicate, read-out: cell inhibitory SF50 (COLO320DM), replicate) [nM] | SMILES
< 50 nM | < 5000 |  | COCc1ccn(Cc2ccc(-c3cc4c(C#N)cccc4c(=O)[nH]3)cc2)n1 [IQ-033]
< 50 nM |  |  | CC(c1ccc(-c2cc3c(C#N)cccc3c(=O)[nH]2)cn1)n1ccnc1 (centres unmarked) [IQ-034]
< 50 nM | < 5000 |  | CC(c1ccc(-c2cc3c(C#N)cccc3c(=O)[nH]2)cc1)n1ccnc1CO (centres unmarked) [IQ-038]
< 50 nM | < 5000 |  | Cc1nnc(N2CCN(Cc3ccc(-c4cc5c(C#N)cc(F)cc5c(=O)[nH]4)cc3)CC2)o1 [IQ-039]
< 100 nM | < 5000 |  | Cc1nnc(N2CCN(Cc3ccc(-c4cc5c(C#N)cccc5c(=O)[nH]4)cc3)C(C)C2)o1 (centres unmarked) [IQ-040]
< 50 nM | < 5000 |  | Cc1nnc(N(C)Cc2ccc(-c3cc4c(C#N)cccc4c(=O)[nH]3)cc2)o1 [IQ-042]
< 100 nM |  |  | N#Cc1cccc2c(=O)[nH]c(-c3ccc(CN)cc3)cc12 [IQ-043]
< 50 nM |  |  | CCc1nnc(N2CCN(Cc3ccc(-c4cc5c(C#N)cccc5c(=O)[nH]4)cc3)CC2)o1 [IQ-044]
 | < 5000 |  | CC(C)(C)OC(=O)N1CCN(Cc2ccc(-c3cc4c(C#N)cccc4c(=O)[nH]3)cc2)CC1 [IQ-046]
< 50 nM | < 5000 |  | Cc1nnc(N(C)C2CN(Cc3ccc(-c4cc5c(C#N)cccc5c(=O)[nH]4)cc3)C2)o1 [IQ-047]
< 50 nM | < 5000 |  | Cc1nnc(N2CCCN(Cc3ccc(-c4cc5c(C#N)cccc5c(=O)[nH]4)cc3)CC2)o1 [IQ-049]
 | < 5000 |  | CC(C)(C)OC(=O)N1CCN(c2ccc(-c3cc4c(C#N)cccc4c(=O)[nH]3)cn2)CC1 [IQ-051]
< 50 nM |  |  | Cc1nnc(N2CCN(c3ccc(-c4cc5c(C#N)cccc5c(=O)[nH]4)cc3)CC2)o1 [IQ-055, 3-{4-[4-(5-Methyl-[1,3,4]oxadiazol-2-yl)piperazin-1-yl]phenyl}-1-oxo-1,2-dihydroisoquinoline-5-carbonitrile]
< 50 nM | < 5000 |  | Cc1nnc(N2CCN(Cc3ccc(-c4cc5c(C#N)cccc5c(=O)[nH]4)cc3)CC2C)o1 (centres unmarked) [IQ-056]
< 50 nM | < 5000 |  | Cc1nnc(N2CCN(Cc3ccc(-c4cc5c(C#N)cccc5c(=O)[nH]4)cc3)C(C)(C)C2)o1 [IQ-057]
< 100 nM |  |  | Cc1nnc(N2CCN(Cc3ccc(-c4cc5c(C#N)cccc5c(=O)[nH]4)cc3)CC2(C)C)o1 [IQ-058]
< 50 nM | < 5000 |  | Cc1nnc(N2CCCN(c3ccc(-c4cc5c(C#N)cccc5c(=O)[nH]4)cc3)CC2)o1 [IQ-059, 3-{4-[4-(5-Methyl-[1,3,4]oxadiazol-2-yl)-[1,4]diazepan-1-yl]-phenyl}-1-oxo-1,2-dihydro-isoquinoline-5-carbonitrile]
